Measured values: patent US20230167105A1, “BCL-2 PROTEIN INHIBITORS” (Recurium IP Holdings, LLC, priority 2020, published 2023)

Tested on: MOLT-4 cells
Assay: MOLT-4 Cell Proliferation Assay (CellTiter-Glo)
Format: cell-based
Details: Homo sapiens, 72 h, read-out: MOLT-4 CTG IC50
Method: Cell proliferation was measured using the CellTiter-Glo® Luminescent Cell Viability Assay. The assay involved the addition of a single reagent (CellTiter-Glo® Reagent) directly to cells cultured in serum-supplemented medium. MOLT-4 cells (ATCC, CRL-1582) were cultured according to ATCC recommendations and were seeded at 50,000 cells per well.
Each compound evaluated was prepared as a DMSO stock solution (10 mM). Compounds were tested in duplicate on each plate, with a 10-point serial dilution curve (1:3 dilution). The highest compound concentration was 10 μM (final), with a 0.1% final DMSO concentration. Plates were then incubated at 37° C., 5% CO2 for 72 h, cell plates were equilibrated at rt for approximately 30 mins. An equi-volume amount of CellTiter-Glo® Reagent (100 μL) was added to each well. Plates were mixed for 2 mins on an orbital shaker to induce cell lysis and then incubated at rt for 10 mins to stabilize the luminescent signal. Luminescence was recorded using a Envision plate reader according to CellTiter-Glo protocol. IC50 of each compound was calculated using GraphPad Prism by nonlinear regression analysis.

SMILES	IC50 [nM]
CC1(C)CCC(CN2CCN(c3ccc(C(=O)NS(=O)(=O)c4ccc(N[C@H](CCN5CCN(CCCCCNc6cccc7c6C(=O)N(C6CCC(=O)NC6=O)C7=O)CC5)CSc5ccccc5)c(S(=O)(=O)C(F)(F)F)c4)cc3)CC2)=C(C23CC(C(F)F)(C2)C3)C1 (stereo partly drawn) [Example 2, 4-(4-((2-(3-(difluoromethyl)bicyclo[1.1.1]pentan-1-yl)-4,4-dimethylcyclohex-1-en-1-yl)methyl)piperazin-1-yl)-N-((4-(((2R)-4-(4-(5-((2-(2,6-dioxopiperidin-3-yl)-1,3-dioxoisoindolin-4-yl)amino)pentyl)piperazin-1-yl)-1-(phenylthio)butan-2-yl)amino) ((trifluoromethyl)sulfonyl)phenyl)sulfonyl)benzamide]	≤ 50
Cc1ncsc1-c1ccc(CNC(=O)[C@@H]2C[C@@H](O)CN2C(=O)[C@@H](NC(=O)CCCCCC(=O)N2CCN(CC[C@H](CSc3ccccc3)Nc3ccc(S(=O)(=O)NC(=O)c4ccc(N5CCN(CC6=C(C78CC(C(F)F)(C7)C8)CC(C)(C)CC6)CC5)cc4)cc3S(=O)(=O)C(F)(F)F)CC2)C(C)(C)C)cc1 [Example 45, (2S,4R)-1-((S)-2-(7-(4-((R)-3-((4-(N-(4-(4-((2-(3-(difluoromethyl)bicyclo[1.1.1]pentan-1-yl)-4,4-dimethylcyclohex-1-en-1-yl)methyl)piperazin-1-yl)benzoyl)sulfamoyl)-2-((trifluoromethyl)sulfonyl)phenyl)amino)-4-(phenylthio)butyl)piperazin-1-yl)-7-oxoheptanamido)-3,3-dimethylbutanoyl)-4-hydroxy-N-(4-(4-methylthiazol-5-yl)benzyl)pyrrolidine-2-carboxamide]	≥ 150
Cc1ncsc1-c1ccc([C@H](CC(=O)NCCCCCC(=O)N2CCN(CC[C@H](CSc3ccccc3)Nc3ccc(S(=O)(=O)NC(=O)c4ccc(N5CCN(CC6=C(C78CC(C(F)F)(C7)C8)CC(C)(C)CC6)CC5)cc4)cc3S(=O)(=O)C(F)(F)F)CC2)NC(=O)[C@@H]2C[C@@H](O)CN2C(=O)[C@@H](NC(=O)C2(F)CC2)C(C)(C)C)cc1 [Example 47]	≥ 150
CCC12CC(C3=C(CN4CCN(c5ccc(C(=O)NS(=O)(=O)c6ccc(N[C@H](CCN7CCN(CCCCCNc8cccc9c8C(=O)N(C8CCC(=O)NC8=O)C9=O)CC7)CSc7ccccc7)c(S(=O)(=O)C(F)(F)F)c6)cc5)CC4)CCC(C)(C)C3)(C1)C2 (stereo partly drawn) [Example 10, N-((4-(((2R)-4-(4-(5-((2-(2,6-dioxopiperidin-3-yl)-1,3-dioxoisoindolin-4-yl)amino)pentyl)piperazin-1-yl)-1-(phenylthio)butan-2-yl)amino)-3-((trifluoromethyl)sulfonyl)phenyl)sulfonyl)-4-(4-((2-(3-ethylbicyclo[1.1.1]pentan-1-yl)-4,4-dimethylcyclohex-1-en-1-yl)methyl)piperazin-1-yl)benzamide]	50 to 150
Cc1ncsc1-c1ccc([C@H](CC(=O)NCCCCCCN(C)CC[C@H](CSc2ccccc2)Nc2ccc(S(=O)(=O)NC(=O)c3ccc(N4CCN(CC5=C(C67CC(C(F)F)(C6)C7)CC(C)(C)CC5)CC4)cc3)cc2S(=O)(=O)C(F)(F)F)NC(=O)[C@@H]2C[C@@H](O)CN2C(=O)[C@@H](NC(=O)C2(F)CC2)C(C)(C)C)cc1 [Example 49, (2S,4R)—N-[(1S)-3-[6-[[(3R)-3-[4-[[4-[4-[[2-[3-(difluoromethyl)-1-bicyclo[1.1.1]pentanyl]-4,4-dimethyl-cyclohexen-1-yl]methyl]piperazin-1-yl]benzoyl]sulfamoyl]-2-(trifluoromethylsulfonyl)anilino]-4-phenylsulfanyl-butyl]-methyl-amino]hexylamino]-1-[4-(4-methylthiazol-5-yl)phenyl]-3-oxo-propyl]-1-[(2S)-2-[(1-fluorocyclopropanecarbonyl)amino]-3,3-dimethyl-butanoyl]-4-hydroxy-pyrrolidine-2-carboxamide]	≥ 150
CC1(C)CCC(CN2CCN(c3ccc(C(=O)NS(=O)(=O)c4ccc(N[C@H](CCN5CCN(CCCCc6ccc7c(c6)C(=O)N(C6CCC(=O)NC6=O)C7=O)CC5)CSc5ccccc5)c(S(=O)(=O)C(F)(F)F)c4)cc3)CC2)=C(C23CC(C(F)F)(C2)C3)C1 (stereo partly drawn) [Example 17, 4-(4-((2-(3-(difluoromethyl)bicyclo[1.1.1]pentan-1-yl)-4,4-dimethylcyclohex-1-en-1-yl)methyl)piperazin-1-yl)-N-((4-(((2R)-4-(4-(4-(2-(2,6-dioxopiperidin-3-yl)-1,3-dioxoisoindolin-5-yl)butyl)piperazin-1-yl)-1-(phenylthio)butan-2-yl)amino)-3-((trifluoromethyl)sulfonyl)phenyl)sulfonyl)benzamide]	≤ 50
Cc1cc([C@H](C(=O)N2C[C@H](O)C[C@H]2C(=O)N[C@@H](CC(=O)NCCCCCC(=O)N2CCN(CC[C@H](CSc3ccccc3)Nc3ccc(S(=O)(=O)NC(=O)c4ccc(N5CCN(CC6=C(C78CC(C(F)F)(C7)C8)CC(C)(C)CC6)CC5)cc4)cc3S(=O)(=O)C(F)(F)F)CC2)c2ccc(-c3scnc3C)cc2)C(C)C)on1 [Example 50, (2S,4R)—N—((S)-3-((6-(4-((R)-3-((4-(N-(4-(4-((2-(3-(difluoromethyl)bicyclo[1.1.1]pentan-1-yl)-4,4-dimethylcyclohex-1-en-1-yl)methyl)piperazin-1-yl)benzoyl)sulfamoyl)-2-((trifluoromethyl)sulfonyl)phenyl)amino)-4-(phenylthio)butyl)piperazin-1-yl)-6-oxohexyl)amino)-1-(4-(4-methylthiazol-5-yl)phenyl)-3-oxopropyl)-4-hydroxy-1-((R)-3-methyl-2-(3-methylisoxazol-5-yl)butanoyl)pyrrolidine-2-carboxamide]	≥ 150
CC1(C)CCC(CN2CCN(c3ccc(C(=O)NS(=O)(=O)c4ccc(N[C@H](CCN5CCN(CCCCc6ccc7c(c6)CN(C6CCC(=O)NC6=O)C7=O)CC5)CSc5ccccc5)c(S(=O)(=O)C(F)(F)F)c4)cc3)CC2)=C(C23CC(C(F)F)(C2)C3)C1 (stereo partly drawn) [Example 18, 4-(4-((2-(3-(difluoromethyl)bicyclo [1.1.1]pentan-1-yl)-4,4-dimethylcyclohex-1-en-1-yl)methyl)piperazin-1-yl)-N-((4-(((2R)-4-(4-(4-(2-(2,6-dioxopiperidin-3-yl)-1-oxoisoindolin-5-yl)butyl)piperazin-1-yl)-1-(phenylthio)butan-2-yl)amino)-3-((trifluoromethyl)sulfonyl)phenyl)sulfonyl)benzamide]	≤ 50
CC1(C)CCC(CN2CCN(c3ccc(C(=O)NS(=O)(=O)c4ccc(N[C@H](CCN5CCN(CCCCCNc6cccc7c6CN(C6CCC(=O)NC6=O)C7=O)CC5)CSc5ccccc5)c(S(=O)(=O)C(F)(F)F)c4)cc3)CC2)=C(C23CC(C(F)F)(C2)C3)C1 (stereo partly drawn) [Example 15, 4-[4-[[2-[3-(difluoromethyl)-1-bicyclo[1.1.1]pentanyl]-4,4-dimethyl-cyclohexen-1-yl]methyl]piperazin-1-yl]-N-[4-[[(1R)-3-[4-[5-[[2-(2,6-dioxo-3-piperidyl)-1-oxo-isoindolin-4-yl]amino]pentyl]piperazin-1-yl]-1-(phenylsulfanylmethyl)propyl]amino]-3-(trifluoromethylsulfonyl)phenyl]sulfonyl-benzamide]	50 to 150
